According to patent US20100150948A1, “MATERIALS AND METHODS FOR IMPROVED IMMUNOGLYCOPROTEINS” (TRUBION PHARMACEUTICALS, INC., priority 2006, published 2010):
Several values for one entry are separate records, joined by “and”; a condition that tells them apart may be missing. Identical values can stand only once.

Test system: CHO cells transfected with TRU-016
Test: Effect of castanospermine concentration on cell viability, density and specific protein production of TRU-016
Format: cell-based, Chinese hamster
Conditions: for Viability at Harvest (%): harvest day 8, duplicate flasks, listed as CS
Description: Prior to initiation of the experiments, CHO cells transfected with TRU-016 were grown in shake flasks in Ex-Cell™ 302 CHO serum-free media (SAFC Biosciences) supplemented with 1× non-essential amino acids (MediaTech), 1× sodium pyruvate (MediaTech), 4 mM L-glutamine (MediaTech), 500 nM methotrexate (MP Biomedicals) and 1 mg/L recombinant insulin (Recombulin—GIBCO/Invitrogen Corp.) at 37° C. and 5% carbon dioxide in a humidified incubator. A 200 mM stock concentration of castanospermine (Alexis Biochemicals) was prepared by dilution of the castanospermine in sterile, distilled/deionized water (MediaTech) and filtration through a 13 mm Acrodisc® with a 0.2 μm HT Tuffryn membrane (Pall Corporation). Stock solution was aliquoted into sterile, O-ringed, 0.5 mL microcentrifuge tubes (Fisherbrand, Fisher Scientific) and frozen at −20° C. Approximately 1 hour prior to initiation of experiments, needed aliquots were thawed at room temperature and the contents of each vial mixed well by vortexing.
For each experiment, cells in log phase growth were seeded in the above medium into a total volume of 60 mL in 250 mL shaker flasks at a density of 200,000 cells/mL and CS added at the concentration to be tested. Final CS concentrations of 800 μM, 400 μM, 200 μM, 100 μM, 50 μM, 25 μM and 0 μM were each tested in duplicate flasks. All cultures were incubated at 37° C. and 5% carbon dioxide in a humidified incubator and monitored at least every other day for viable cell density and overall cell viability.
Cultures were harvested on day 8 when overall cell viability was 50-70% (Expt. 1) and 30-50% (Expt. 2). Cells and cellular debris were removed by centrifugation in a Sorvall Super T21 at 3000 rpm for 20 minutes after which the supernatant was sterile filtered through a Millipore Steriflip unit with a 0.22 μm Millipore Express Plus membrane and stored at 2-8° C. until purification.

O[C@H]1[C@H](O)[C@@H](O)CN2CC[C@H](O)[C@H]12 [castanospermine]
reduction of TRU-016 protein production (400 μm CS): approximately 40% | Viability at Harvest (%) (CS 25 μM): 53.9% and 54.5% | Viability at Harvest (%) (CS 50 μM): 49.4% and 50.0% | Viability at Harvest (%) (CS 100 μM): 54.4% and 54.6% | Viability at Harvest (%) (CS 200 μM): 55.5% and 51.1% | Viability at Harvest (%) (CS 400 μM): 65.7% and 68.2% | Viability at Harvest (%) (CS 800 μM): 70.6% and 65.2% | cell viability and growth as indicated by integral cell area (ICA) (CS 25-800 μM): did not appear to be significantly affected | immunoglycoprotein production (increasing concentrations of castanospermine, 25-800 μM): appeared to reduce
